Results taken from patent US5698522A, “6-position modified decapeptide LHRH antagonists” (Abbott Laboratories, priority 1995, dated 1997).
Where a SMILES comes first, the peptide text is derived from it. Side-chain parts run from the residue outwards. [ ]: non-standard residue; d: D form. The star is where a group is joined. ξ: configuration not given here. ξTetrahydrofuran2carbonyl = O=C(C1CCCO1)*; dPhe(4-Cl) = N[C@H](Cc1ccc(Cl)cc1)C(=O)O; d2Nal = N[C@H](Cc1ccc2ccccc2c1)C(=O)O; Lys(iPr) = CC(C)NCCCC[C@H](N)C(=O)O; NMeY = CN[C@@H](Cc1ccc(O)cc1)C(=O)O; Thiophene2carbonyl = O=C(c1cccs1)*; d3Pal = N[C@H](Cc1cccnc1)C(=O)O; Salicyloyl = O=C(c1ccccc1O)*; Nicotinoyl = O=C(c1cccnc1)*; X1 = O=C(c1cc2ccccc2cc1O)*; 2Furoyl = O=C(c1ccco1)*; Ahx = NCCCCCC(=O)O; GABA = NCCCC(=O)O; azaGly = NNC(=O)O; βAla = NCCC(=O)O; Sar = CNCC(=O)O

Target: T1, LHRH receptor (Rattus norvegicus, UniProt P30969)
T1 construct: endogenous in cells
T1 sequence (P30969 1-327): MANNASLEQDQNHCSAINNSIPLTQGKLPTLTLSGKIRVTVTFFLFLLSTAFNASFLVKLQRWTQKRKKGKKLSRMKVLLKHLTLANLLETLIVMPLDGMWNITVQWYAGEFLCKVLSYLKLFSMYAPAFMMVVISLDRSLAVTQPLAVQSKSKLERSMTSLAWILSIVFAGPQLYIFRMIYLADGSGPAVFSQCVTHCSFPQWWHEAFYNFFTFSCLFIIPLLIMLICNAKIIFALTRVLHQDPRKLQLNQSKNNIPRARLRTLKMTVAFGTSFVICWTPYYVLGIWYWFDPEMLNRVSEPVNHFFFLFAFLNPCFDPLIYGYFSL
Test: in vitro LHRH antagonist potency (pA2) against the agonist leuprolide
Assay type: cell-based
Details: negative logarithm of the antagonist concentration which shifts the response curve produced by the agonist leuprolide to two-fold higher concentration
Protocol: Representative compounds of the present invention were evaluated in in vitro tests for receptor binding (pKI) and for LHRH antagonist potency (pA2). The tests employed the methods detailed in F. Haviv, et al., J. Med. Chem., 32: 2340-2344 (1989). The receptor binding affinities (pKI) are the negative logarithms of the equilibtirum dissociation constants (pA2) are the negative logarithms of the concentration of antagonist which shift the response curve roduced by the agonist leuprolide to two-fold higher concentration. (Leuprolide is the LHRH agonist having the structure 5-oxo-Pro^1 -His^2 -Trp^3 -Ser^4 -Tyr^5 -D-Leu^6 -Leu^7 -Arg^8 -Pro^9 -NHEt and is disclosed and claimed in U.S. Pat. No. 4,005,063.) Typically pA2 values of 9.5 or greater are indicative of good LHRH antagonist potency.

Structure (SMILES) | Kb
CC(=O)N[C@H](Cc1ccc2ccccc2c1)C(=O)N[C@H](Cc1ccc(Cl)cc1)C(=O)N[C@H](Cc1cccnc1)C(=O)N[C@@H](CO)C(=O)N(C)[C@@H](Cc1ccc(O)cc1)C(=O)N[C@H](CCCCNC(=O)CNC(=O)c1cccnc1)C(=O)N[C@@H](CC(C)C)C(=O)N[C@@H](CCCCNC(C)C)C(=O)N1CCC[C@H]1C(=O)N[C@H](C)C(N)=O [Example 1, NAc-D2Nal^1 -D4ClPhe^2 -D3Pal^3 -Ser^4 -NMeTyr^5 -DLys(N-epsilon-Gly-Nicotinyl)^6 -Leu^7 -Lys(N-epsilon-Isopropyl)^8 -Pro^9 -DAla^10 NH2] (Ac-[d2Nal][dPhe(4-Cl)][d3Pal]S[NMeY][dK]([Gly-Nicotinoyl])L[Lys(iPr)]P[dA]-NH2) | 3.55 pM
CC(=O)N[C@H](Cc1ccc2ccccc2c1)C(=O)N[C@H](Cc1ccc(Cl)cc1)C(=O)N[C@H](Cc1cccnc1)C(=O)N[C@@H](CO)C(=O)N(C)[C@@H](Cc1ccc(O)cc1)C(=O)N[C@H](CCCCNC(=O)NNC(=O)c1ccco1)C(=O)N[C@@H](CC(C)C)C(=O)N[C@@H](CCCCNC(C)C)C(=O)N1CCC[C@H]1C(=O)N[C@H](C)C(N)=O [Example 2, NAc-D2Nal^1 -D4ClPhe^2 -D3Pal^3 -Ser^4 -NMeTyr^5 -DLys(N-epsilon-Azagly-2-Furoyl)^6 -Leu^7 -Lys(N-epsilon-Isopropyl)^8 -Pro^9 -DAla^10 NH2] (Ac-[d2Nal][dPhe(4-Cl)][d3Pal]S[NMeY][dK]([azaGly-2Furoyl])L[Lys(iPr)]P[dA]-NH2) | 1.41 pM
CC(=O)N[C@H](Cc1ccc2ccccc2c1)C(=O)N[C@H](Cc1ccc(Cl)cc1)C(=O)N[C@H](Cc1cccnc1)C(=O)N[C@@H](CO)C(=O)N(C)[C@@H](Cc1ccc(O)cc1)C(=O)N[C@H](CCCCNC(=O)NNC(=O)c1cccnc1)C(=O)N[C@@H](CC(C)C)C(=O)N[C@@H](CCCCNC(C)C)C(=O)N1CCC[C@H]1C(=O)N[C@H](C)C(N)=O [Example 3, NAc-D2Nal^1 -D4ClPhe^2 -D3Pal^3 -Ser^4 -NMeTyr^5 -DLys(N-epsilon-Azagly-Nicotinyl)^6 -Leu^7 -Lys(N-epsilon-Isopropyl)^8 -Pro^9 -DAla^10 NH2] (Ac-[d2Nal][dPhe(4-Cl)][d3Pal]S[NMeY][dK]([azaGly-Nicotinoyl])L[Lys(iPr)]P[dA]-NH2) | 4.9 pM
CC(=O)N[C@H](Cc1ccc2ccccc2c1)C(=O)N[C@H](Cc1ccc(Cl)cc1)C(=O)N[C@H](Cc1cccnc1)C(=O)N[C@@H](CO)C(=O)N(C)[C@@H](Cc1ccc(O)cc1)C(=O)N[C@H](CCCCNC(=O)CCNC(=O)c1cccnc1)C(=O)N[C@@H](CC(C)C)C(=O)N[C@@H](CCCCNC(C)C)C(=O)N1CCC[C@H]1C(=O)N[C@H](C)C(N)=O [Example 4a] (Ac-[d2Nal][dPhe(4-Cl)][d3Pal]S[NMeY][dK]([βAla-Nicotinoyl])L[Lys(iPr)]P[dA]-NH2) | 5.62 pM
CC(=O)N[C@H](Cc1ccc2ccccc2c1)C(=O)N[C@H](Cc1ccc(Cl)cc1)C(=O)N[C@H](Cc1cccnc1)C(=O)N[C@@H](CO)C(=O)N(C)[C@@H](Cc1ccc(O)cc1)C(=O)N[C@H](CCCCNC(=O)CCCNC(=O)c1cccnc1)C(=O)N[C@@H](CC(C)C)C(=O)N[C@@H](CCCCNC(C)C)C(=O)N1CCC[C@H]1C(=O)N[C@H](C)C(N)=O [Example 4b, NAc-D2Nal^1 -D4ClPhe^2 -D3Pal^3 -Ser^4 -NMeTyr^5 -DLys[N-epsilon-(gamma-Aminobutyryl)Nicotinyl]^6 -Leu^7 -Lys(N-epsilon-Isopropyl)^8 -Pro^9 -DAla^10 NH2] (Ac-[d2Nal][dPhe(4-Cl)][d3Pal]S[NMeY][dK]([GABA-Nicotinoyl])L[Lys(iPr)]P[dA]-NH2) | 23.4 pM
CC(=O)N[C@H](Cc1ccc2ccccc2c1)C(=O)N[C@H](Cc1ccc(Cl)cc1)C(=O)N[C@H](Cc1cccnc1)C(=O)N[C@@H](CO)C(=O)N(C)[C@@H](Cc1ccc(O)cc1)C(=O)N[C@H](CCCCNC(=O)[C@@H](CO)NC(=O)c1cccnc1)C(=O)N[C@@H](CC(C)C)C(=O)N[C@@H](CCCCNC(C)C)C(=O)N1CCC[C@H]1C(=O)N[C@H](C)C(N)=O [Example 4c, NAc-D2Nal^1 -D4ClPhe^2 -D3Pal^3 -Ser^4 -NMeTyr^5 -DLys[N-epsilon-DSer-Nicotinyl]^6 -Leu^7 -Lys(N-epsilon-Isopropyl)^8 -Pro^9 -DAla^10 NH2] (Ac-[d2Nal][dPhe(4-Cl)][d3Pal]S[NMeY][dK]([dS-Nicotinoyl])L[Lys(iPr)]P[dA]-NH2) | 15.8 pM
CC(=O)N[C@H](Cc1ccc2ccccc2c1)C(=O)N[C@H](Cc1ccc(Cl)cc1)C(=O)N[C@H](Cc1cccnc1)C(=O)N[C@@H](CO)C(=O)N(C)[C@@H](Cc1ccc(O)cc1)C(=O)N[C@H](CCCCNC(=O)CN(C)C(=O)c1cccnc1)C(=O)N[C@@H](CC(C)C)C(=O)N[C@@H](CCCCNC(C)C)C(=O)N1CCC[C@H]1C(=O)N[C@H](C)C(N)=O [Example 4d, NAc-D2Nal^1 -D4ClPhe^2 -D3Pal^3 -Ser^4 -NMeTyr^5 -DLys(N-epsilon-Sar-Nicotinyl)^6 -Leu^7 -Lys(N-epsilon-Isopropyl)^8 -Pro^9 -DAla^10 NH2] (Ac-[d2Nal][dPhe(4-Cl)][d3Pal]S[NMeY][dK]([Sar-Nicotinoyl])L[Lys(iPr)]P[dA]-NH2) | 13.8 pM
CC(=O)N[C@H](Cc1ccc2ccccc2c1)C(=O)N[C@H](Cc1ccc(Cl)cc1)C(=O)N[C@H](Cc1cccnc1)C(=O)N[C@@H](CO)C(=O)N(C)[C@@H](Cc1ccc(O)cc1)C(=O)N[C@H](CCCCNC(=O)CCCCCNC(=O)c1cccnc1)C(=O)N[C@@H](CC(C)C)C(=O)N[C@@H](CCCCNC(C)C)C(=O)N1CCC[C@H]1C(=O)N[C@H](C)C(N)=O [Example 4e, NAc-D2Nal^1 -D4ClPhe^2 -D3Pal^3 -Ser^4 -NMeTyr^5 -DLys[N-epsilon-(N-epsilon-aminocaproyl)-Nicotinyl]^6 -Leu^7 -Lys(N-epsilon-Isopropyl)^8 -Pro^9 -DAla^10 NH2] (Ac-[d2Nal][dPhe(4-Cl)][d3Pal]S[NMeY][dK]([Ahx-Nicotinoyl])L[Lys(iPr)]P[dA]-NH2) | 33.9 pM
CC(=O)N[C@H](Cc1ccc2ccccc2c1)C(=O)N[C@H](Cc1ccc(Cl)cc1)C(=O)N[C@H](Cc1cccnc1)C(=O)N[C@@H](CO)C(=O)N(C)[C@@H](Cc1ccc(O)cc1)C(=O)N[C@H](CCCCNC(=O)NNC(=O)C1CCCO1)C(=O)N[C@@H](CC(C)C)C(=O)N[C@@H](CCCCNC(C)C)C(=O)N1CCC[C@H]1C(=O)N[C@H](C)C(N)=O (stereo partly drawn) [Example 5a, NAc-D2Nal^1 -D4ClPhe^2 -D3Pal^3 -Ser^4 -NMeTyr^5 -DLys(N-epsilon-Azagly-2-Tetrahydrofuroyl)^6 -Leu^7 -Lys(N-epsilon-Isopropyl)^8 -Pro^9 -DAla^10 NH2] (Ac-[d2Nal][dPhe(4-Cl)][d3Pal]S[NMeY][dK]([azaGly-ξTetrahydrofuran2carbonyl])L[Lys(iPr)]P[dA]-NH2) | 19.1 pM
CC(=O)N[C@H](Cc1ccc2ccccc2c1)C(=O)N[C@H](Cc1ccc(Cl)cc1)C(=O)N[C@H](Cc1cccnc1)C(=O)N[C@@H](CO)C(=O)N(C)[C@@H](Cc1ccc(O)cc1)C(=O)N[C@H](CCCCNC(=O)NNC(=O)c1cccs1)C(=O)N[C@@H](CC(C)C)C(=O)N[C@@H](CCCCNC(C)C)C(=O)N1CCC[C@H]1C(=O)N[C@H](C)C(N)=O [Example 5b, NAc-D2Nal^1 -D4ClPhe^2 -D3Pal^3 -Ser^4 -NMeTyr^5 -DLys(N-epsilon-Azagly-2-Thienylcarbonyl)^6 -Leu^7 -Lys(N-epsilon-Isopropyl)^8 -Pro^9 -DAla^10 NH2] (Ac-[d2Nal][dPhe(4-Cl)][d3Pal]S[NMeY][dK]([azaGly-Thiophene2carbonyl])L[Lys(iPr)]P[dA]-NH2) | 2.95 pM
CC(=O)N[C@H](Cc1ccc2ccccc2c1)C(=O)N[C@H](Cc1ccc(Cl)cc1)C(=O)N[C@H](Cc1cccnc1)C(=O)N[C@@H](CO)C(=O)N(C)[C@@H](Cc1ccc(O)cc1)C(=O)N[C@H](CCCCNC(=O)NNC(=O)c1ccccc1O)C(=O)N[C@@H](CC(C)C)C(=O)N[C@@H](CCCCNC(C)C)C(=O)N1CCC[C@H]1C(=O)N[C@H](C)C(N)=O [Example 5c, NAc-D2Nal^1 -D4ClPhe^2 -D3Pal^3 -Ser^4 -NMeTyr^5 -DLys(N-epsilon-Azagly-Salicyl)^6 -Leu^7 -Lys(N-epsilon-Isopropyl)^8 -Pro^9 -DAla^10 NH2] (Ac-[d2Nal][dPhe(4-Cl)][d3Pal]S[NMeY][dK]([azaGly-Salicyloyl])L[Lys(iPr)]P[dA]-NH2) | 13.2 pM
CC(=O)N[C@H](Cc1ccc2ccccc2c1)C(=O)N[C@H](Cc1ccc(Cl)cc1)C(=O)N[C@H](Cc1cccnc1)C(=O)N[C@@H](CO)C(=O)N(C)[C@@H](Cc1ccc(O)cc1)C(=O)N[C@H](CCCCNC(=O)NNC(=O)c1cc2ccccc2cc1O)C(=O)N[C@@H](CC(C)C)C(=O)N[C@@H](CCCCNC(C)C)C(=O)N1CCC[C@H]1C(=O)N[C@H](C)C(N)=O [Example 5d, NAc-D2Nal^1 -D4ClPhe^2 -D3Pal^3 -Ser^4 -NMeTyr^5 -DLys[N-epsilon-Azagly-(3-OH-2-Naphthoyl)]^6 -Leu^7 -Lys(N-epsilon-Isopropyl)^8 -Pro^9 -DAla^10 NH2] (Ac-[d2Nal][dPhe(4-Cl)][d3Pal]S[NMeY][dK]([azaGly-X1])L[Lys(iPr)]P[dA]-NH2) | 55 pM
